# Target: KRAS-G12C/SOS1 interaction (Homo sapiens (Human), UniProt Q07889)
# Experiment: Protein-Protein Interaction (PPI) assay, SOS1-KRAS binding assay kit (HTRF)
# Conditions: not given
# Protocol: This Example illustrates that exemplary compounds of the present invention blockade the interaction of SOS1 to KRAS protein.
# The ability of a compound of Formula (I) to block the interaction of SOS1 to KRAS was measured using a SOS1-KRAS binding assay kit (CAT #63ADK000CB16PEG, Cisbio). Utilizing HTRF (Homogeneous Time-resolved Fluorescence) technology, the assay enables simple and rapid characterization of compound and antibody blockers in a high throughput format. The interaction between Tag1-SOS1 and Tag2-KRAS-G12C is detected by using anti-Tag1-Terbium antibody (HTRF donor) and anti-Tag2-XL665 antibody (HTRF acceptor). When the donor and acceptor antibodies are brought into close proximity due to SOS1 and KRAS-G12C binding, excitation of the donor antibody triggers fluorescent resonance energy transfer (FRET) towards the acceptor antibody, which in turn emits specifically at 665 nm. This specific signal is directly proportional to the extent of KRAS-G12C/SOS1 interaction.
# The assay was carried according to the manufacturer's instructions. Compounds at an initial concentration of 10 mM in DMSO were first serially diluted on a 384-well plate using assay buffer at a ratio of 1:3 for a total of 9 concentrations with each of a volume of 20 μL. Blank buffer was included as the negative control. The final compound solution was in the buffer solution with 1% DMSO. Then, in each well of a 384-well plate, a solution of 2 μL compound solution, 4 μL tagged SOS1 and KRAS (G12C) protein stocks, respectively, and 10 μM GTP was incubated for 15 min. 10 μL mixture of […] antibody and anti-Tag1-Terbium antibody was introduced to each individual well. After 2 hours incubation at room temperature, fluorescence readout was measured with a Pelkin Elmer multiple plate reader VICTOR Nivo.
# Excitation was from over a range of 245-395 nm, and emission from the donor (emission 1) was detected at […] and emission from the acceptor (emission 2) was detected at (606.5-623.5) nm. The HTRF ratio was calculated using the formula: (emission 1 @665 nm/emission 2 @620 nm)×10000. Thus, compounds blocking KRAS-G12C/SOS1 interaction will cause a reduction in HTRF signal ratio. The IC50 values were then calculated with the Graph pad Prism software.
# Chain of KRAS-G12C/SOS1 interaction (Q07889 whole entry, stated change not applied): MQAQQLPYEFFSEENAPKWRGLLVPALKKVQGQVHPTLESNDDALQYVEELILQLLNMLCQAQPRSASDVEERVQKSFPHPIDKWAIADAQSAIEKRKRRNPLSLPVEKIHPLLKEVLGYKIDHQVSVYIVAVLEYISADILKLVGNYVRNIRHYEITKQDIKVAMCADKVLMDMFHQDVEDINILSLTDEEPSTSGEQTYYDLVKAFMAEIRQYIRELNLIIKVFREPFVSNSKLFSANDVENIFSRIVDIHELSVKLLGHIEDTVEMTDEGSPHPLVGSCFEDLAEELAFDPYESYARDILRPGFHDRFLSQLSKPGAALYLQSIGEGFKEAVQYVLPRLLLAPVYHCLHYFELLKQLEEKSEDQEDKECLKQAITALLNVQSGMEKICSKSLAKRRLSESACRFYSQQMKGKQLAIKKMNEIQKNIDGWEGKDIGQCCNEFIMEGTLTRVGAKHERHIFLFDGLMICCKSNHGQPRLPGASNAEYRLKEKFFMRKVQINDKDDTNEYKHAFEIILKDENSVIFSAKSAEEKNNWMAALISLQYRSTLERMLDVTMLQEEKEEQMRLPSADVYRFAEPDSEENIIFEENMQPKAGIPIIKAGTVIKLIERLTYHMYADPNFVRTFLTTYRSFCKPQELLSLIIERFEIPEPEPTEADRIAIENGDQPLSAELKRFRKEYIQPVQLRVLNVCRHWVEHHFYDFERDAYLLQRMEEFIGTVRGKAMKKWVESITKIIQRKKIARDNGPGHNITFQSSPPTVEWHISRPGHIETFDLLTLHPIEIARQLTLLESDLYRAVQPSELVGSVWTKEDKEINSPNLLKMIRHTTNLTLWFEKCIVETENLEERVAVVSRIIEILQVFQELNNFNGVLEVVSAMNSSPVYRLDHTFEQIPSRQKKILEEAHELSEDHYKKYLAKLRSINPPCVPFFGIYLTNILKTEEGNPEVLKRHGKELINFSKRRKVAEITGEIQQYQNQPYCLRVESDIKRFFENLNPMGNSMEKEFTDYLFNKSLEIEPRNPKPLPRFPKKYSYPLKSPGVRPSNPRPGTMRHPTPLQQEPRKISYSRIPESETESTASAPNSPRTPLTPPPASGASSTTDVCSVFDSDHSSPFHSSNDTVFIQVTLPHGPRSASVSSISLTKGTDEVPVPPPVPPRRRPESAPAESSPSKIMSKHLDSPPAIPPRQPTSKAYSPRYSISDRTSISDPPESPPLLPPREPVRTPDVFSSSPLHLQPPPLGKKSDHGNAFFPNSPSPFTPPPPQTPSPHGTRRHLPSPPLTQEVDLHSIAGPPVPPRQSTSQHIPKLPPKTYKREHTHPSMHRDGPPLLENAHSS
row,Structure (SMILES),IC50 [nM]
1,Cc1nc(N[C@H](C)c2cccc(C(F)F)c2F)c2cc(C(=O)NC(C)(C)C)c3nnnn3c2n1 [Example 57],> 100
2,Cc1nc(N[C@H](C)c2cccc(C(F)F)c2F)c2cc(C(=O)N3CCOC[C@H]3C)c3ncnn3c2n1 [Example 15],> 100
3,Cc1nc(N[C@H](C)c2cccc(C(F)F)c2F)c2cc(C(=O)N(C(C)C)C(C)C)c3ncnn3c2n1 [Example 7],> 100
4,Cc1nc(N[C@H](C)c2cccc(C(F)F)c2F)c2cc(C(=O)N3C4COCC3C4)c3nnnn3c2n1 [Example 65],> 100
5,CCOC(=O)c1cc2c(N[C@H](C)c3cccc(C(F)F)c3F)nc(C)nc2n2cnnc12 [Example 53],> 100
6,CC(=O)N1CC=C(c2cc3c(N[C@H](C)c4cccc(C(F)F)c4F)nc(C)nc3n3cnnc23)C1 [Example 103],> 100
7,Cc1nc(N[C@H](C)c2cccc(C(F)F)c2F)c2cc(C(=O)N(C(C)C)C(C)C)c3nnnn3c2n1 [Example 56],> 100
8,Cc1nc(N[C@H](C)c2cccc(C(F)F)c2F)c2cc(C(=O)N(C)C3COC3)c3ncnn3c2n1 [Example 8],> 100
9,Cc1nc(N[C@H](C)c2cccc(C(F)F)c2F)c2cc(C(=O)N3CC4(CCC4)C3)c3ncnn3c2n1 [Example 28],> 100
10,CNC(=O)c1cc2c(N[C@H](C)c3cccc(C(F)F)c3F)nc(C)nc2n2ncnc12 [Example 9],> 100
11,C[C@@H](Nc1ncnc2c1cc(N1C3COCC1C3)c1nncn12)c1cccc(C(F)F)c1F [Example 80],> 100
12,CC(=O)N1CC=C(c2cc3c(N[C@H](C)c4cccc(C(F)F)c4F)nc(C)nc3n3cnnc23)CC1(C)C [Example 102],> 100
13,CC(=O)N1CCC(c2cc3c(N[C@H](C)c4cccc(C(F)F)c4F)nc(C)nc3n3c(C)nnc23)CC1 [Example 141],> 100

# Continued, values first:
row,IC50 [nM],Structure (SMILES)
1,> 100,Cc1nc(N[C@H](C)c2cccc(C(F)F)c2F)c2cc(N3CCC(F)(F)CC3)c3nncn3c2n1 [Example 75]
2,> 100,Cc1nc(N[C@H](C)c2cccc(C(F)F)c2F)c2cc(N3CC(O)C3)c3nncn3c2n1 [Example 77]
3,> 100,Cc1c([C@@H](C)Nc2ncnc3c2cc(N2CCOCC2)c2nncn23)cccc1C(F)(F)F [Example 83]
4,> 100,C[C@@H](Nc1ncnc2c1cc(N1CCOCC1)c1nncn12)c1cccc(C(F)(F)F)c1F [Example 84]
5,> 100,C[C@@H](Nc1ncnc2c1cc(N1CC(C#N)C1)c1nncn12)c1cccc(C(F)F)c1F [Example 81]
6,> 100,CC(=O)N1CC2(C1)CN(c1cc3c(N[C@H](C)c4cccc(C(F)F)c4F)ncnc3n3cnnc13)C2 [Example 82]
7,> 100,C[C@@H](Nc1ncnc2c1cc(NC1CCS(=O)(=O)CC1)c1nncn12)c1cccc(C(F)F)c1F [Example 89]

# Same assay, conditions: read-out: PPI Assay IC50
row,Structure (SMILES),IC50 [nM]
1,C[C@@H](Nc1ncnc2c1cc(C(=O)N1CCCC13CCOC3)c1ncnn12)c1cccc(C(F)F)c1F (some centres unmarked) [Example 44],< 100
2,Cc1nc(N[C@H](C)c2cccc(C(F)F)c2F)c2cc(C(=O)N3CCOCC3(C)C)c3ncnn3c2n1 [Example 14],< 100
3,Cc1nc(N[C@H](C)c2cccc(C(F)F)c2F)c2cc(C(=O)N3CCOC[C@@H]3C)c3ncnn3c2n1 [Example 12],< 100
4,Cc1nc(N[C@H](C)c2cccc(C(F)F)c2F)c2cc(C(=O)N3CC(O)C3)c3ncnn3c2n1 [Example 25],< 100
5,Cc1nc(N[C@H](C)c2cccc(C(F)F)c2F)c2cc(C3CCN(S(C)(=O)=O)CC3)c3nnnn3c2n1 [Example 143],< 100
6,"Cc1nc(N[C@H](C)c2cccc(C(F)F)c2F)c2cc([C@H]3CC[C@H](O)CC3)c3nncn3c2n1 [Example 90-P2, trans-4-(4-(((R)-1-(3-(difluoromethyl)-2-fluorophenyl)ethyl)amino)-2-methyl-[1,2,4]triazolo[4′,3′:1,6]pyrido[2,3-d]pyrimidin-6-yl)cyclohexan-1-ol]",< 100
7,C[C@@H](Nc1ncnc2c1cc(C(=O)N(C)C)c1ncnn12)c1cccc(C(F)F)c1F [Example 40],< 100
8,Cc1nc(N[C@H](C)c2cccc(C(F)F)c2F)c2cc(C(=O)N3CCCCC3)c3ncnn3c2n1 [Example 16],< 100
9,Cc1nc(N[C@H](C)c2cccc(C(F)F)c2F)c2cc(C(=O)N3CCCC34CCOC4)c3nncn3c2n1 (some centres unmarked) [Example 52],< 100
10,Cc1nc(N[C@H](C)c2cccc(C(F)F)c2F)c2cc(N3CC(C(=O)N(C)C)C3)c3nnnn3c2n1 [Example 94],< 100
11,Cc1nc(N[C@H](C)c2cccc(C(F)F)c2F)c2cc(C(=O)N3CCCC34CCCC4)c3ncnn3c2n1 [Example 32],< 100
12,Cc1nc(N[C@H](C)c2cccc(C(F)F)c2F)c2cc(C(=O)N3CCC34COC4)c3nnnn3c2n1 [Example 63],< 100
13,CC(=O)N1CC=C(c2cc3c(N[C@H](C)c4cccc(C(F)F)c4F)nc(C)nc3n3c(C)nnc23)CC1 [Example 104],< 100
14,C[C@@H](Nc1ncnc2c1cc(C(=O)N1C3CCC1COC3)c1ncnn12)c1cccc(C(F)F)c1F [Example 49],< 100
15,C[C@@H](Nc1ncnc2c1cc(C(=O)N1C3CCN(C)CC1C3)c1ncnn12)c1cccc(C(F)F)c1F (some centres unmarked) [Example 48],< 100
16,CC(=O)N1CCC(c2cc3c(N[C@H](C)c4cccc(C(F)F)c4F)nc(C)nc3n3cnnc23)CC1(C)C (some centres unmarked) [Example 139],< 100
17,COCC(=O)N1CCC(c2cc3c(N[C@H](C)c4cccc(C(F)F)c4F)nc(C)nc3n3nnnc23)CC1 [Example 144],< 100
18,C[C@@H](Nc1ncnc2c1cc(C(=O)N1C3COCC1C3)c1ncnn12)c1cccc(C(F)F)c1F [Example 46],< 100
19,"Cc1nc(N[C@H](C)c2cccc(C(F)F)c2F)c2cc([C@H]3CC[C@@H](O)CC3)c3nncn3c2n1 [Example 90-P1, Cis-4-(4-(((R)-1-(3-(difluoromethyl)-2-fluorophenyl)ethyl)amino)-2-methyl-[1,2,4]triazolo[4′,3′:1,6]pyrido[2,3-d]pyrimidin-6-yl)cyclohexan-1-ol]",< 100
20,Cc1nc(N[C@H](C)c2cccc(C(F)F)c2F)c2cc(C(=O)N3CCC4(CCOC4)C3)c3ncnn3c2n1 (some centres unmarked) [Example 34],< 100
21,COC1(c2cc3c(N[C@H](C)c4cc(N)cc(C(F)(F)F)c4)ncnc3n3nnnc23)CCN(C(C)=O)CC1 [Example 126],< 100
22,CC(=O)N1CC2(CCN2C(=O)c2cc3c(N[C@H](C)c4cccc(C(F)F)c4F)nc(C)nc3n3ncnc23)C1 [Example 30],< 100
23,Cc1nc(N[C@H](C)c2cccc(C(F)F)c2F)c2cc(C(=O)N3C4CCC3COC4)c3nnnn3c2n1 [Example 64],< 100
24,CC(=O)N1CC2(CCN2C(=O)c2cc3c(N[C@H](C)c4cccc(C(F)F)c4F)nc(C)nc3n3nnnc23)C1 [Example 61],< 100

# Continued, values first:
row,IC50 [nM],Structure (SMILES)
1,< 100,C[C@H](O)C(=O)N1CCC(c2cc3c(N[C@H](C)c4cccc(C(F)F)c4F)ncnc3n3cnnc23)CC1 [Example 72]
2,< 100,C[C@@H](Nc1ncnc2c1cc(C1(O)CCS(=O)(=O)CC1)c1nncn12)c1cccc(C(F)F)c1F [Example 110]
3,< 100,C[C@@H](Nc1ncnc2c1cc(C(=O)N1CCC13COC3)c1ncnn12)c1cccc(C(F)F)c1F [Example 43]
4,< 100,"CC(=O)NC1(c2cc3c(N[C@H](C)c4cccc(C(F)F)c4F)ncnc3n3cnnc23)CCN(C(C)=O)CC1 [Example 134, (R)—N-(1-acetyl-4-(4-((1-(3-(difluoromethyl)-2-fluorophenyl)ethyl)amino)-[1,2,4]triazolo[4′,3′:1,6]pyrido[2,3-d]pyrimidin-6-yl)piperidin-4-yl)acetamide]"
5,< 100,"Cc1nc(N[C@H](C)c2cccc(C(F)F)c2F)c2cc(C(=O)N3CCOCC3)c3nccn3c2n1 [Example 54, (R)-(4-((1-(3-(difluoromethyl)-2-fluorophenyl)ethyl)amino)-2-methylimidazo[1′,2′:1,6]pyrido[2,3-d]pyrimidin-6-yl)(morpholino)methanone]"
6,< 100,CC(=O)N1CCC(C)(c2cc3c(N[C@H](C)c4cccc(C(F)F)c4F)ncnc3n3cnnc23)CC1 [Example 128]
7,< 100,CC(=O)N1CC2(C1)CN(c1cc3c(N[C@H](C)c4cccc(C(F)F)c4F)nc(C)nc3n3cnnc13)C2 [Example 78]
8,< 100,Cc1nc(N[C@H](C)c2cccc(C(F)F)c2F)c2cc(C3CCSCC3)c3nncn3c2n1 [Example 138]
9,< 100,"[2H]C([2H])([2H])OC1(c2cc3c(N[C@H](C)c4cccc(C(F)F)c4F)ncnc3n3cnnc23)CCN(C(C)=O)CC1 [Example 133, (R)-1-(4-(4-((1-(3-(difluoromethyl)-2-fluorophenyl)ethyl)amino)-[1,2,4]triazolo[4′,3′:1,6]pyrido[2,3-d]pyrimidin-6-yl)-4-(methoxy-d3)piperidin-1-yl)ethan-1-one]"

# Source: patent US20250230159A1, “FUSED HETEROCYCLIC COMPOUNDS AS MODULATORS OF RAS SIGNALLING” (Shenzhen Ionova Life Science Co., Ltd., priority 2022, published 2025)
